# Where “and” joins values, the source holds several entries; their conditions need not be identical. Equal values may be shown once.
# Tested on: oral mucositis induced by acute radiation in hamsters
# Assay: Oral mucositis induced by acute radiation in hamsters
# Type: in vivo, Golden Hamsters
# Experimental: Referring to FIG. 11, FIG. 11 is a table 1100 showing a study design for an assessment of RRx-001 for the treatment of oral mucositis induced by acute radiation in hamsters. Mucositis was induced in 56 male Golden Hamsters via an acute radiation dose of 40 Gy directed to their left buccal cheek pouch. RRX-001 was administered with a vehicle comprising a 1:2 vol; vol ratio of N,N-Dimethylacetamide/40% Polyethylene Glycol (DMA:PBG). […] Otherwise, dosing was administered according to the “Dose Schedule” column of the table 1100. The study lasted 28 days. Mucositis was evaluated in hamsters from day 6 through day 28.
# Starting at day 6 of the study and continuing every second day thereafter (day 8, 10, 12, 14, 16, 18, 20, 22, 24, 26, and 28), the hamsters were photographed and evaluated for mucositis scoring. The hamsters were anesthetized and the left pouch everted to evaluate a score each hamster based on a severity of mucositis. The scores, on a scale of 0-5, are defined as follows: • “0” means a pouch is completely healthy. • “1” means light to […] erythema and vasodilation and no erosion of mucosa. • “2” means severe erythema and vasodilation. Erosion of superficial aspects of mucosa leaving denuded areas. Decreased stippling of mucosa. • “3” means formation of off-white ulcers in one or more places. Ulcers may have a yellow/gray color due to pseudomembrane. Cumulative size of ulcers should equal less than or equal to ¼ of the pouch. Severe erythema and vasodilation. • “4” means a cumulative seize of ulcers should equal about ½ of the pouch. Loss of pliability. Severe erythema and vasodilation. • “5” means virtually all of pouch is ulcerated. Loss of pliability (pouch can only partially be extracted from mouth).
# FIG. 15B is a bar graph 1550 showing a percent of cumulative animal days with mucositis scores greater than or equal to 3 for days 6-28. Statistical significance of the observed differences was calculated using chi-squared analysis.
# FIG. 16B is a bar graph 1650 showing a percent of cumulative animal days with mucositis scores greater than or equal to 3 for days 6-28. Statistical significance of the observed differences was calculated using chi-squared analysis.
# Referring to FIG. 18, FIG. 18 is a table 1800 showing a percent of hamsters with ulceration by day with mucositis scores of greater than or equal to 3. Each data point represents a percentage of hamsters in each group on a day that had both a mucositis score of 3 or greater and open ulcers. Like FIGS. 17A and 17B, horizontal shading denotes a decrease in mucositis scores and vertical shading denotes an increase in mucositis scores.
smiles,measurement,setting,value
"O=C(CBr)N1CC([N+](=O)[O-])([N+](=O)[O-])C1 [RRx-001, 2-bromo-1-(3,3-dinitroazetidin-1-yl) ethan-1-one]",percent of hamsters with ulceration (mucositis score ≥3),"day 12, group 2 (10 mg/kg, discontinued after day 1)",40%
same,percent of hamsters with ulceration (mucositis score ≥3),"day 28, group 2 (10 mg/kg, discontinued after day 1)",40%
same,mean daily mucositis score,"day 28, group 2 (10 mg/kg, dosing discontinued after day 1)",approximately 2.2
same,mean daily mucositis score,"day 28, group 3 (3 mg/kg)",approximately 2.7
same,percent of hamsters with ulceration (mucositis score ≥3),"day 28, group 5 (10 mg/kg, discontinued after day 1)",57.1%
same,mean daily mucositis score,"day 28, group 5 (10 mg/kg, dosing discontinued after day 1)",approximately 2.6
same,mean daily mucositis score,"day 28, group 6 (3 mg/kg)",approximately 2.7
same,percent of hamsters with ulceration (mucositis score ≥3),"day 28, groups 3 and 6 (3 mg/kg)",75.0%
same,percent of hamsters with ulceration (mucositis score ≥3),"day 28, groups 4 and 7 (1 mg/kg)",62.5%
same,percent of cumulative animal days with mucositis score greater than or equal to 3,"days 6-28, group 3 (3 mg/kg)",63.54%
same,percent of cumulative animal days with mucositis score greater than or equal to 3,"days 6-28, group 6 (3 mg/kg), 3 mg/kg",53.45% and 63.54%
same,body weight change,groups 2 and 5 (10 mg/kg),"initially lost weight, but rebounded"
same,tolerability of dosing,groups 2 and 5 (10 mg/kg),discontinued after day 1 due to adverse side effects

# From US20260240810A1, “COMPOSITIONS AND METHODS FOR REDUCING ADVERSE SIDE EFFECTS IN CANCER TREATMENT” (priority 2022, published 2026)
